Experimental data from ChEMBL document CHEMBL5046290, “Design, Synthesis, and Preclinical Profiling of GSK3739936 (BMS-986180), an Allosteric Inhibitor of HIV-1 Integrase with Broad-Spectrum Activity toward 124/125 Polymorphs” (J Med Chem, 2022).

Key:
[1] = system: Human immunodeficiency virus 1; assay: Anti retroviral activity against HIV-1 NL4-3 harboring at AA polymorph infected in human MT4 cells by CellTitre-Glo luminescent reagent based assay; type: functional, organism-based; conditions: Human immunodeficiency virus 1, NL4-3, MT4
[2] = system: Human immunodeficiency virus 1; assay: Anti retroviral activity against HIV-1 NL4-3 harboring at TA polymorph infected in human MT4 cells by CellTitre-Glo luminescent reagent based assay; type: functional, organism-based; conditions: Human immunodeficiency virus 1, NL4-3, MT4
[3] = system: Human immunodeficiency virus 1; assay: Anti retroviral activity against HIV-1 NL4-3 harboring at AT polymorph infected in human MT4 cells by CellTitre-Glo luminescent reagent based assay; type: functional, organism-based; conditions: Human immunodeficiency virus 1, NL4-3, MT4
[4] = system: Human immunodeficiency virus 1; assay: Anti retroviral activity against HIV-1 NL4-3 harboring at TT polymorph infected in human MT4 cells by CellTitre-Glo luminescent reagent based assay; type: functional, organism-based; conditions: Human immunodeficiency virus 1, NL4-3, MT4
[5] = system: Human immunodeficiency virus 1; assay: Anti retroviral activity against HIV-1 NL4-3 harboring at NT polymorph infected in human MT4 cells by CellTitre-Glo luminescent reagent based assay; type: functional, organism-based; conditions: Human immunodeficiency virus 1, NL4-3, MT4
[6] = system: Human immunodeficiency virus 1; assay: Antiviral activity against recombinant HIV1 NLRep-Rluc harbouring polymorphic T124/T125 integrase infected in human MT-2 cells assessed as inhibition of virus growth in presence of fetal bovine serum by measuring luciferase activity after 5 days; type: functional, organism-based, MT2
[7] = system: Human immunodeficiency virus 1; assay: Antiviral activity against recombinant HIV1 NLRep-Rluc harbouring polymorphic AA infected in human MT-2 cells assessed as inhibition of virus growth in presence of fetal bovine serum by measuring luciferase activity after 5 days; type: functional, organism-based; conditions: Human immunodeficiency virus 1, NLRep, MT2, 120 h
[8] = system: Human immunodeficiency virus 1; assay: Antiviral activity against recombinant HIV1 NLRep-Rluc harbouring polymorphic AT infected in human MT-2 cells assessed as inhibition of virus growth in presence of fetal bovine serum by measuring luciferase activity after 5 days; type: functional, organism-based; conditions: Human immunodeficiency virus 1, NLRep, MT2, 120 h
[9] = system: Human immunodeficiency virus 1; assay: Antiviral activity against recombinant HIV1 NLRep-Rluc harbouring polymorphic NA infected in human MT-2 cells assessed as inhibition of virus growth in presence of fetal bovine serum by measuring luciferase activity after 5 days; type: functional, organism-based; conditions: Human immunodeficiency virus 1, NLRep, MT2, 120 h
[10] = system: Human immunodeficiency virus 1; assay: Antiviral activity against recombinant HIV1 NLRep-Rluc harbouring polymorphic TA infected in human MT-2 cells assessed as inhibition of virus growth in presence of fetal bovine serum by measuring luciferase activity after 5 days; type: functional, organism-based; conditions: Human immunodeficiency virus 1, NLRep, MT2, 120 h
[11] = system: Human immunodeficiency virus 1; assay: Antiviral activity against recombinant HIV1 NLRep-Rluc harbouring polymorphic NT infected in human MT-2 cells assessed as inhibition of virus growth in presence of fetal bovine serum by measuring luciferase activity after 5 days; type: functional, organism-based; conditions: Human immunodeficiency virus 1, NLRep, MT2, 120 h
[12] = system: Human immunodeficiency virus 1; assay: Antiviral activity against recombinant HIV1 A128T-resitant mutant […] infected in human MT-2 cells assessed as inhibition of virus growth in presence of fetal bovine serum by measuring luciferase activity after 5 days; type: functional, organism-based; conditions: Human immunodeficiency virus 1, MT2, 120 h
[13] = system: Human immunodeficiency virus 1; assay: Anti retroviral activity against HIV-1 NL4-3 harboring at NA polymorph infected in human MT4 cells by CellTitre-Glo luminescent reagent based assay; type: functional, organism-based; conditions: Human immunodeficiency virus 1, NL4-3, MT4
[14] = Displacement of [3H](S)-2-(tert-butoxy)-2-(2-methyl-4-(p-tolyl)quinolin-3-yl)acetic acid from LEDGF-binding site of recombinant T124/T125 polymorphic HIV1 integrase by LIDIA assay; design: species or system Human immunodeficiency virus 1
[15] = Cytotoxicity against human MT2 cells assessed as cell viability measured after 4 days by XTT assay; type: toxicity, cell-based; conditions: time 4 day
[16] = molecular target: T1, Solute carrier organic anion transporter family member 1B1 (Homo sapiens, UniProt Q9Y6L6); assay: Inhibition of OATP1B1 (unknown origin); type: ADME
T1 sequence (Q9Y6L6 whole entry): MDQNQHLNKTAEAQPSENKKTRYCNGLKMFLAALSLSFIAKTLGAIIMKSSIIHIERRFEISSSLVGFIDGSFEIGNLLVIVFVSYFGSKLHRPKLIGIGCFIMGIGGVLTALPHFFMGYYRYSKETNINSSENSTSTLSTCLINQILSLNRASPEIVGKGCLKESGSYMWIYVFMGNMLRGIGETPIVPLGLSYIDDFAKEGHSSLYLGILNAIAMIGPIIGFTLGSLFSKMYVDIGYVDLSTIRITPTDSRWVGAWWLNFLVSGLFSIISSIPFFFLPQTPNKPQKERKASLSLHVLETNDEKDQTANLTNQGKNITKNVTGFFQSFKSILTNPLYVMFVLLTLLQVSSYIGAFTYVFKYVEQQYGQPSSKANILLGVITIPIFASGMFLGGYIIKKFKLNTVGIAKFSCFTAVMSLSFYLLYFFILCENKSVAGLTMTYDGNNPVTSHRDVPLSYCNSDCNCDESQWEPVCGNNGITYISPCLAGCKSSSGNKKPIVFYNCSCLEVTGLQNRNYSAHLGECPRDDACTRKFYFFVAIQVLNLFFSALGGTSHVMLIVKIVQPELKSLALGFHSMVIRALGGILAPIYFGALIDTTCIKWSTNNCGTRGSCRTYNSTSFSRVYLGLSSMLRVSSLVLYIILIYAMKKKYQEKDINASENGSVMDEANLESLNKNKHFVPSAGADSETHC

[17] = Metabolic stability in rat liver microsome assessed half life at 0.5 uM by LC-MS/MS analysis; type: ADME; conditions: liver microsomes
[18] = Metabolic stability in human liver microsome assessed half life at 0.5 uM by LC-MS/MS analysis; type: ADME; conditions: liver microsomes
[19] = Clearance in Sprague-Dawley rat at 1 mg/kg, iv by LC-MS/MS analysis; type: ADME, organism-based; conditions: in vivo
[20] = Stability in human liver microsome assessed as half life; type: ADME; conditions: liver microsomes
[21] = Human immunodeficiency virus 1, NLRep, MT2, 120 h

Compound | EC50 [1] [nM] | EC50 [2] [nM] | EC50 [3] [nM] | EC50 [4] [nM] | EC50 [6, 21] [nM] | EC50 [7] [nM] | EC50 [8] [nM] | EC50 [9] [nM] | EC50 [10] [nM] | EC50 [11] [nM] | EC50 [12] [nM] | IC50 [14] [nM] | CC50 at 96 h [15] [nM] | half-life at 0.5 µM [17] [min] | half-life at 0.5 µM [18] [min] | clearance [19] [mL/min/kg] | further results
Cc1sc(-c2ccncc2)c(C2=CCC(C)(C)CC2)c1[C@H](OC(C)(C)C)C(=O)O | 1500 | 1600 | 14000 | 31 | – | – | – | – | – | – | – | – | – | – | – | – | –
Cc1nc2ccccc2c(-c2ccc3c4c(ccnc24)CCO3)c1[C@H](OC(C)(C)C)C(=O)O [BI-224436] | 32 | 32 | 32 | 32 | 49 | 28.1 | 48.7 | 49.1 | 49.5 | 56.3 | > 500 | – | – | – | – | – | EC50 [5]: 32 nM; EC50 [13]: 32 nM
Cc1nc(C)c([C@H](OC(C)(C)C)C(=O)O)c(N2CCC(C)(C)CC2)c1-c1ccc(OCCc2ccc(C#N)cc2)cc1 | – | – | – | – | 1.5 | – | – | – | – | – | – | 13.3 | ≥ 33500 | – | – | – | IC50 [16]: 100 nM
Cc1nc(C)c([C@H](OC(C)(C)C)C(=O)O)c(N2CCC(C)(C)CC2)c1-c1ccc(OCCc2ccc(F)c(F)c2)cc1 | – | – | – | – | 2.7 | 3.7 | 2.7 | 7 | 1.8 | 2.1 | 255 | 6.7 | ≥ 33500 | 51 | > 120 | 5.8 | –
Cc1ncsc1CCOc1ccc(-c2c(C)nc(C)c([C@H](OC(C)(C)C)C(=O)O)c2N2CCC(C)(C)CC2)cc1 | – | – | – | – | 0.8 | 0.7 | 1 | 1.3 | 0.75 | 1 | 107 | 12.7 | ≥ 25000 | > 120 | 90 | 69 | –
Cc1nc(C)c([C@H](OC(C)(C)C)C(=O)O)c(N2CCC(C)(C)CC2)c1-c1ccc(OC2COCC2c2ccc(F)cc2)cc1 (stereo in doubt; 40b) | – | – | – | – | – | 1.7 | 1.3 | 3.7 | 0.92 | 0.53 | > 500 | 7.9 | – | > 120 | 47 | 23.4 | EC50 ([6]; mt2): 0.6 nM; half-life [20]: 47 min
